Measurements from patent US10995358B2, “Rapid antibiotic susceptibility test using membrane fluorescence staining and spectral intensity ratio improved by flow cytometry dead to live population ratio” (POCARED Diagnostics LTD., priority 2017, dated 2021).

Assays:
Assay type in all cases: cell-based
[1] = tested on: 30 clinical isolates of E. coli, K. pneumoniae, E. cloacae, P. mirabilis, and C. freundii; experiment: Macro dilution reference method, clinical isolates (visual growth after 16-20 hours)
Method: A total of 90 isolates-antibiotics combinations were tested. • a) All strains were cultured onto 5% sheep blood agar (Hylabs, Israel), following overnight incubation, colonies were harvested and suspended in Phosphate Buffer Saline (PBS, Sigma-Aldrich). […] 1 ml was discarded from the last tube in each set of tubes. • g) For each serial dilutions set, two controls were added. As a negative control, a tube with 2 ml of CAMHB. […] The rest of the sample was further incubated for 16-20 hours and then was visually evaluated for growth.

E. coli [2] = experiment: Rapid AST from positive blood culture by FM 1-43 staining, flow cytometry and SIR; conditions: positive blood culture strain, 2-4 hours antibiotic exposure
Method: (§1) In general, the method includes; blood culture centrifugation, bacterial antimicrobial exposure for 2 to 4 hours, bacteria staining with a single fluorescence dye followed by a flow cytometric measurement, and mathematical analysis.
(§2) 31 positive blood cultures were obtained from Sheba Medical Center (Ramat-Gan, Israel) and tested for antimicrobial susceptibility with gentamicin and ampicillin antibiotics (Sigma-Aldrich, USA). […] As a positive control, a tube with bacterial sample solution (a) without antimicrobial agent. • h) All tubes were incubated at 37° C. • i) 2-4 hours from incubation initiation, 200 μl from each tube were transferred into a fresh tube, dyed with 2 μl of Synaptogreen or FM 1-43 (Sigma-Aldrich; Molecular Probes, respectively) and measured by a flow cytometer. The rest of the sample was further incubated for 16-20 hours and then was visually evaluated for growth.
(§3) In order to quantify the influence of a certain antimicrobial exposure we define the spectral intensity ratio (SIR) as follows: […]
(§4) The MIC is calculated by plotting the spectral intensity ratio (SIR) as a function of the antimicrobial concentration and approximating it to a step function in the form of […]

K. pneumonia = experiment: Rapid AST/MIC from positive blood culture by FM 1-43 staining, flow cytometry and spectral intensity ratio (SIR); conditions: 2-4 hours antibiotic exposure
Method: as §1, §2, §3, §4

[3] = tested on: 31 positive blood cultures (E. coli, K. pneumonia, A. baummanii, P. mirabilis, E. cloacae, Aeromonass spp., K. oxytoca); experiment: Macro dilution reference method, positive blood cultures (visual growth after 16-20 hours); conditions: 31 strains from positive blood cultures
Method: 31 positive blood cultures were obtained from Sheba Medical Center (Ramat-Gan, Israel) and tested for antimicrobial susceptibility with gentamicin and ampicillin antibiotics (Sigma-Aldrich, USA). A total of 62 positive blood samples-antibiotics combinations were tested. • a) Positive blood samples were received from Sheba Medical Center, 2 ml of each sample were centrifuged for 15 min at 24×g and Supernatants were diluted 1:1000 with Cation-Adjusted Mueller Hinton Broth (CAMHB). • b) Antimicrobial stock solutions were prepared according to CLSI recommendations, and were diluted in CAMHB, to a concentration which was 2 fold higher from the highest concentration recommended for each antimicrobial combination (“Class II Special Controls Guidance Document: Antimicrobial Susceptibility Test (AST) Systems”, Aug. 28, 2009, FDA). • c) For each sample/antimicrobial combination, a set of tubes was prepared for which 1 ml of CAMHB medium was added, except for the first tube. • d) To each first tube of the set, 2 ml from the antimicrobial stock solution (b) was dispensed. • e) From the first tube a serial dilutions of 2 folds were prepared by transferring 1 ml of the solution to the next tube until the lowest required concentration by CLSI. 1 ml was discarded from the last tube in each set of tubes. • f) To each tube in the set, 1 ml of bacterial sample solution (a) was added. • g) For each serial dilutions set, two controls were added. As a negative control, a tube with 2 ml of CAMHB. As a positive control, a tube with bacterial sample solution (a) without antimicrobial agent. • h) All tubes were incubated at 37° C. • i) 2-4 hours from incubation initiation, 200 μl from each tube were transferred into a fresh tube, dyed with 2 μl of Synaptogreen or FM 1-43 (Sigma-Aldrich; Molecular Probes, respectively) and measured by a flow cytometer. The rest of the sample was further incubated for 16-20 hours and then was visually evaluated for growth.
62 samples (31 positive blood cultures and 2 antibiotics combination) were analyzed in triplicates. Each sample was measured by the flow cytometer and the MIC was calculated using the spectral intensity ratio (SIR) calculation and step function estimation. The bacteria identified within the samples were; E. coli (15 samples), K. pneumonia (6 samples), A. baummanii (4 samples), P. mirabilis (2 samples), E. cloacae (2 samples), Aeromonass spp. (1 sample), and K. oxytoca (1 sample).
Tables 1 and 2 present the results of the positive blood sample experiment using the macro dilution as the reference method. […] There are no errors as defined by “Class II Special Controls Guidance Document: Antimicrobial Susceptibility Test (AST) Systems,” Aug. 28, 2009, FDA.

E. coli [4] = experiment: Rapid AST/MIC from clinical isolates by FM 1-43 staining, flow cytometry and SIR; conditions: clinical isolate, 2-4 hours antibiotic treatment
Method: (§5) Our method includes bacterial antimicrobial treatment for 2 to 4 hours, bacteria staining with a single fluorescence dye followed by a flow cytometric measurement, and mathematical analysis. The following paragraphs describe the method in details.
(§6) A total of 90 isolates-antibiotics combinations were tested. • a) All strains were cultured onto 5% sheep blood agar (Hylabs, Israel), following overnight incubation, colonies were harvested and suspended in Phosphate Buffer Saline (PBS, Sigma-Aldrich). […] The rest of the sample was further incubated for 16-20 hours and then was visually evaluated for growth.
(§7) In order to quantify the influence of a certain antimicrobial treatment, we define the spectral intensity ratio (SIR) as follows: […]
(§8) The MIC is calculated by plotting the spectral intensity ratio (SIR) as a function of the antimicrobial concentration and approximating it to a step function in the form of
(§9) Where a, b, and c are parameters and erf is the error function. The parameters are used to approximate the measured SIR to a step function; a is a scaling parameter, b determines the step slope, and c is the MIC value. […]

C. freundii = experiment: Rapid AST from clinical isolates by FM 1-43 staining, flow cytometry and SIR; conditions: clinical isolate, up to 32 μg/ml
Method: as §5, §6, §7, §8, §9

E. coli [5] = experiment: Micro dilution susceptibility test performed in parallel; conditions: after 12 hours of incubation
E. coli [6] = experiment: Flow cytometry SIR/SDL dead/live analysis of FM1-43 stained bacteria under Gentamycin exposure; design: key to SIR: SIR = ratio of mean FL-3 (610 nm) to FL-1 (530 nm) fluorescence; conditions: for Dead % of This Plot / Live % of This Plot / SDL SIR * D/L / SIR: 120 minutes
Method: In this Example, E. coli bacteria samples were incubated with Gentamycin in series dilution from 0 to 32 μgr/ml for 120 minutes. Post incubation the samples were stained with the dye FM1-43 and immediately measured by flow cytometry analysis on light scatter analysis for gating the bacteria and with fluorescence filters: λ1=530/30 and λ2=616/16 nm to analyze the SIR. Moreover gating of the Dead and live bacteria were determined.
From such instant flow-cytometry analysis the SIR and SDL values are evaluated. While performing the same analysis over the whole antibiotic concentrations dilution series the SIR and SDL values were extracted to the concentration series, the data is summarized in Table 5. In Table 5, mean FL1-H and FL3-H is the average of the individual points in the bacteria gated population, i.e. of all measured bacteria. In other words, Fl-1 and FL-3 are merely the fluorescence intensity of each event (bacteria) per a certain fluorescence filter. By referring to FL-1 or FL-3 this means that the mean (average) values of all the events is calculated in the dot plot. FL-1 it is at 530 (±15) nm and FL-3 is at 610 (±10) nm. SIR, is the ratio of FL-3/FL-1. […] So, in order to obtain SIR all that is needed are the FL-3 and FL-1 mean values of the bacterial population in the dot plot. […] By using a predetermined gates, the number of dead and live bacteria can be counted, and then the ratio of dead to live can be calculated and multiplied by the SIR to obtain SDL. The gates are combination of FL-1 and FL-3 and predetermined by control live sample. Plotting SIR, SDL, and DL versus antibiotic concentration is represented in FIG. 15 as (labeled as “SIR”, “SDL”, and “DL”). In FIG. 15, SIR, SDL, and DL are all normalized to the maximum value in the series (column)/dataset and then to 100.
From the data, we can determine the MIC by approximating the MIC as a function of antimicrobial concentration to an error function (FIG. 16) of the following type;
The MIC is the value of the parameter c or a function of it. Specifically, the MIC gets the value of “c”. The value of “c” is the middle of the step in a regular step function of where the step function equals to zero when its values are normalized between −1 to 1.

[7] = 120 minutes incubation, FIG. 17A
[8] = 120 minutes incubation, FIG. 17B
[9] = Gentamycin 1 microg/ml (sub-MIC), listed as Gentamycin
[10] = Gentamycin 1 microg/ml (sub-MIC), listed as gentamycin
[11] = Gentamycin 8 microg/ml (over-MIC), listed as Gentamycin
[12] = Gentamycin 8 microg/ml (over-MIC), listed as gentamycin

## CC1(C)S[C@@H]2[C@H](NC(=O)[C@H](N)c3ccccc3)C(=O)N2[C@H]1C(=O)O [Ampicillin, ampicillin]
[1]
  Reference Method Susceptibilities I (number of strains): 5
  Reference Method Susceptibilities R (number of strains): 9
  Reference Method Susceptibilities S (number of strains): 16
E. coli [2]
  susceptibility by SIR method: resistant
K. pneumonia; Klebsiella pneumoniae, read-out: MIC (SIR approximated to a step function)
  MIC: 4 µg/mL
[3]
  Reference Method Susceptibilities I (number of strains): 0
  Reference Method Susceptibilities R (number of strains): 26
  Reference Method Susceptibilities S (number of strains): 5

## gentamicin
E. coli [4]
  MIC (SIR approximated to a step function): 2 µg/mL
[1]
  Reference Method Susceptibilities I (number of strains): 4
  Reference Method Susceptibilities R (number of strains): 5
  Reference Method Susceptibilities S (number of strains): 21
C. freundii
  susceptibility by SIR method: resistant
K. pneumonia
  MIC (SIR approximated to a step function): 1 µg/mL
[3]
  Reference Method Susceptibilities I (number of strains): 0
  Reference Method Susceptibilities R (number of strains): 10
  Reference Method Susceptibilities S (number of strains): 21
E. coli [5]
  MIC, micro dilution susceptibility test: 8 μgr/ml
E. coli [6]; [7]
  MIC from SIR error function fit (c rounded up to power of 2): 8 μgr/ml
  value of c, error function fit of measured SIR: 4.63 μgr/ml
E. coli [6]; [8]
  MIC from SDL error function fit (c rounded up to power of 2): 8 μgr/ml
  value of c, error function fit of measured SDL: 5.38 μgr/ml
E. coli [6]; Gentamycin 0.25 microg/ml
  Dead % of This Plot: 2.07%
  Live % of This Plot: 97.89%
  SDL SIR * D/L: 0.026
  SIR: 1.223
E. coli [6]; Gentamycin 0.5 microg/ml
  Dead % of This Plot: 2.34%
  Live % of This Plot: 97.65%
  SDL SIR * D/L: 0.030
  SIR: 1.238
E. coli [6]; [9]
  Dead % of This Plot: 4.64%
  Live % of This Plot: 95.29%
E. coli [6]; [10]
  Dead % of This Plot: 4.6%
  Live % of This Plot: 95.2%
E. coli [6]; Gentamycin 1 microg/ml
  SDL SIR * D/L: 0.070
  SIR: 1.437
E. coli [6]; Gentamycin 2 microg/ml
  Dead % of This Plot: 6.46%
  Live % of This Plot: 93.52%
  SDL SIR * D/L: 0.099
  SIR: 1.426
E. coli [6]; Gentamycin 4 microg/ml
  Dead % of This Plot: 9.86%
  Live % of This Plot: 90.09%
  SDL SIR * D/L: 0.188
  SIR: 1.718
E. coli [6]; [11]
  Dead % of This Plot: 18.68%
  Live % of This Plot: 81.28%
E. coli [6]; [12]
  Dead % of This Plot: 18%
  Live % of This Plot: 81%
E. coli [6]; Gentamycin 8 microg/ml
  SDL SIR * D/L: 0.492
  SIR: 2.141
E. coli [6]; Gentamycin 16 microg/ml
  Dead % of This Plot: 27.28%
  Live % of This Plot: 72.67%
  SDL SIR * D/L: 0.893
  SIR: 2.379
E. coli [6]; Gentamycin 32 microg/ml
  Dead % of This Plot: 21.03%
  Live % of This Plot: 78.95%
  SDL SIR * D/L: 0.622
  SIR: 2.336
